Paper PMC9780108, “An intrinsically disordered antimicrobial peptide dendrimer from stereorandomized virtual screening” (Cell Reports. Physical Science, 2022)
Converted amounts (≈) assume the structure as drawn. Positions of bridges follow the written chain, without caps; N, C: chain ends. Non-standard residues stand in square brackets, D forms with d. Residues, ends and D or L forms follow the SMILES beside them. Groups on a side chain read outwards from the residue. Chains are numbered I, II in the order given. *: point of attachment. X4 = CC(C)C[C@@H](NC(=O)CCCCCN)C(=O)NCCCC[C@@H](NC(=O)[C@@H](CC(C)C)NC(=O)CCCCCN)C(=O)*; Ahx = NCCCCCC(=O)O

Legend:
HEK293 cell line = type: cell-based; details: 48 h
Procedure: HEK 293 cell line were cultured and maintained in DMEM (Dulbeccos modified Eagle
medium, Sigma Aldrich) supplemented with 10% FBS (Sigma Aldrich) and 1%
penicillin/streptomycin. Cells were incubated in a humidified incubator at 37°C in the presence
HEK 293 cell were seeded into 96 well plates at the density of 2 × 10^3 cells/well and incubated
in DMEM containing 10% FBS for 10-14 hours at 37°C in the presence of 5% CO2. The next
day, stock solution of compounds were prepared at concentration of 2 mg/mL in DMEM
containing 10% FBS. 1/2 or 1/3 serial dilution of the peptide dendrimers from 2 mg/mL or 200
µg/mL were performed in DMEM containing 10% FBS. The medium was removed from cell
culture and replaced with the compounds at different concentration after washing with PBS.
The cells were incubated in DMEM containing 10% FBS at 37°C in the presence of 5% CO 2.
Negative control was untreated cell culture without compounds and blank control was wells
without cell but only medium. After 48 hours, a final concentration of 10% AlamarBlue®
(Thermo Fisher Scientific, Reinach, CH) was added to each well . The cells were incubated for
3-5 hours at 37°C with 5% CO 2. The fluorescence was then measured on a Tecan Infinite
M1000 Pro plate reader at λex = 560 nm and λem = 590 nm. The value was normalized
according to the untreated cells.

E. coli W3110 = details: for MIC at pH 5.0, E. coli W3110: W3110, pH 5; for MIC at pH 7.4, E. coli W3110: W3110, pH 7.4; for MIC at pH 8.0, E. coli W3110: W3110, pH 8
A. baumannii ATCC 19606 = details: for MIC at pH 5.0, A. baumannii ATCC 19606: ATCC 19606, pH 5; for MIC at pH 7.4, A. baumannii ATCC 19606: ATCC 19606, pH 7.4; for MIC at pH 8.0, A. baumannii ATCC 19606: ATCC 19606, pH 8
P. aeruginosa PAO1 = details: for MIC at pH 5.0, P. aeruginosa PAO1: PAO1, pH 5; for MIC at pH 7.4, P. aeruginosa PAO1: PAO1, pH 7.4; for MIC at pH 8.0, P. aeruginosa PAO1: PAO1, pH 8
K. pneumoniae NCTC 418 = details: for MIC at pH 5.0, K. pneumoniae NCTC 418: NCTC 418, pH 5; for MIC at pH 7.4, K. pneumoniae NCTC 418: NCTC 418, pH 7.4; for MIC at pH 8.0, K. pneumoniae NCTC 418: NCTC 418, pH 8
[1] = tested on: S aureus COL (methicillin-resistant Staphylococcus aureus); details: for MIC at pH 5.0, S aureus COL: COL (methicillin-resistant, pH 5); for MIC at pH 7.4, S aureus COL: COL (methicillin-resistant, pH 7.4); for MIC at pH 8.0, S aureus COL: COL (methicillin-resistant, pH 8)

MIC at pH 5.0, E. coli W3110 (E. coli W3110)	MIC at pH 7.4, E. coli W3110 (E. coli W3110)	MIC at pH 8.0, E. coli W3110 (E. coli W3110)	MIC at pH 5.0, A. baumannii ATCC 19606 (A. baumannii ATCC 19606)	MIC at pH 7.4, A. baumannii ATCC 19606 (A. baumannii ATCC 19606)	MIC at pH 8.0, A. baumannii ATCC 19606 (A. baumannii ATCC 19606)	MIC at pH 5.0, P. aeruginosa PAO1 (P. aeruginosa PAO1)	MIC at pH 7.4, P. aeruginosa PAO1 (P. aeruginosa PAO1)	MIC at pH 8.0, P. aeruginosa PAO1 (P. aeruginosa PAO1)	MIC at pH 5.0, K. pneumoniae NCTC 418 (K. pneumoniae NCTC 418)	MIC at pH 7.4, K. pneumoniae NCTC 418 (K. pneumoniae NCTC 418)	MIC at pH 8.0, K. pneumoniae NCTC 418 (K. pneumoniae NCTC 418)	MIC at pH 5.0, S aureus COL [1]	MIC at pH 7.4, S aureus COL [1]	MIC at pH 8.0, S aureus COL [1]	SMILES	IC50 HEK293 (HEK293 cell line)
32 μg/mL	8 μg/mL	8 μg/mL	16 μg/mL	4 μg/mL	4 μg/mL	32 μg/mL	8 μg/mL	8 μg/mL	> 64 μg/mL	32 μg/mL	16 μg/mL	> 64 μg/mL	> 64 μg/mL	32 μg/mL	CC(C)C[C@H](NC(=O)[C@H](CC(C)C)NC(=O)[C@H](CCCCN)NC(=O)[C@H](CCCCNC(=O)[C@H](CC(C)C)NC(=O)[C@H](CC(C)C)NC(=O)[C@H](CCCCNC(=O)[C@H](CC(C)C)NC(=O)[C@H](CCCCN)NC(=O)[C@H](CCCCNC(=O)[C@H](CC(C)C)NC(=O)[C@@H](N)CCCCN)NC(=O)[C@H](CC(C)C)NC(=O)[C@@H](N)CCCCN)NC(=O)[C@H](CC(C)C)NC(=O)[C@H](CCCCN)NC(=O)[C@H](CCCCNC(=O)[C@H](CC(C)C)NC(=O)[C@@H](N)CCCCN)NC(=O)[C@H](CC(C)C)NC(=O)[C@@H](N)CCCCN)NC(=O)[C@H](CC(C)C)NC(=O)[C@H](CC(C)C)NC(=O)[C@H](CCCCNC(=O)[C@H](CC(C)C)NC(=O)[C@H](CCCCN)NC(=O)[C@H](CCCCNC(=O)[C@H](CC(C)C)NC(=O)[C@@H](N)CCCCN)NC(=O)[C@H](CC(C)C)NC(=O)[C@@H](N)CCCCN)NC(=O)[C@H](CC(C)C)NC(=O)[C@H](CCCCN)NC(=O)[C@H](CCCCNC(=O)[C@H](CC(C)C)NC(=O)[C@@H](N)CCCCN)NC(=O)[C@H](CC(C)C)NC(=O)[C@@H](N)CCCCN)C(N)=O [L-T25, reference compound] (HELM PEPTIDE1{K.L.K.K.L.K.L.L.K.K.L.L.[am]}|PEPTIDE2{K.L}|PEPTIDE3{K.L.K.K.L.K.L.L}|PEPTIDE4{K.L}|PEPTIDE5{K.L.K.K.L}|PEPTIDE6{K.L}|PEPTIDE7{K.L.K.K.L}|PEPTIDE8{K.L}$PEPTIDE1,PEPTIDE2,3:R3-2:R2|PEPTIDE3,PEPTIDE4,3:R3-2:R2|PEPTIDE5,PEPTIDE6,3:R3-2:R2|PEPTIDE7,PEPTIDE8,3:R3-2:R2|PEPTIDE1,PEPTIDE7,6:R3-5:R2|PEPTIDE1,PEPTIDE3,9:R3-8:R2|PEPTIDE3,PEPTIDE5,6:R3-5:R2$$$V2.0)	92 ± 3 µg/mL (≈ 19.9 µM)
32 μg/mL	8 μg/mL	4 μg/mL	32 μg/mL	8 μg/mL	4 μg/mL	32 μg/mL	8 μg/mL	8 μg/mL	> 64 μg/mL	16 μg/mL	16 μg/mL	> 64 μg/mL	> 64 μg/mL	32 μg/mL	CC(C)C[C@@H](NC(=O)[C@@H](CC(C)C)NC(=O)[C@@H](CCCCN)NC(=O)[C@@H](CCCCNC(=O)[C@@H](CC(C)C)NC(=O)[C@@H](CC(C)C)NC(=O)[C@@H](CCCCNC(=O)[C@@H](CC(C)C)NC(=O)[C@@H](CCCCN)NC(=O)[C@@H](CCCCNC(=O)[C@@H](CC(C)C)NC(=O)[C@H](N)CCCCN)NC(=O)[C@@H](CC(C)C)NC(=O)[C@H](N)CCCCN)NC(=O)[C@@H](CC(C)C)NC(=O)[C@@H](CCCCN)NC(=O)[C@@H](CCCCNC(=O)[C@@H](CC(C)C)NC(=O)[C@H](N)CCCCN)NC(=O)[C@@H](CC(C)C)NC(=O)[C@H](N)CCCCN)NC(=O)[C@@H](CC(C)C)NC(=O)[C@@H](CC(C)C)NC(=O)[C@@H](CCCCNC(=O)[C@@H](CC(C)C)NC(=O)[C@@H](CCCCN)NC(=O)[C@@H](CCCCNC(=O)[C@@H](CC(C)C)NC(=O)[C@H](N)CCCCN)NC(=O)[C@@H](CC(C)C)NC(=O)[C@H](N)CCCCN)NC(=O)[C@@H](CC(C)C)NC(=O)[C@@H](CCCCN)NC(=O)[C@@H](CCCCNC(=O)[C@@H](CC(C)C)NC(=O)[C@H](N)CCCCN)NC(=O)[C@@H](CC(C)C)NC(=O)[C@H](N)CCCCN)C(N)=O [D-T25, reference compound] (HELM PEPTIDE1{[dK].[dL].[dK].[dK].[dL].[dK].[dL].[dL].[dK].[dK].[dL].[dL].[am]}|PEPTIDE2{[dK].[dL]}|PEPTIDE3{[dK].[dL].[dK].[dK].[dL].[dK].[dL].[dL]}|PEPTIDE4{[dK].[dL]}|PEPTIDE5{[dK].[dL].[dK].[dK].[dL]}|PEPTIDE6{[dK].[dL]}|PEPTIDE7{[dK].[dL].[dK].[dK].[dL]}|PEPTIDE8{[dK].[dL]}$PEPTIDE1,PEPTIDE2,3:R3-2:R2|PEPTIDE3,PEPTIDE4,3:R3-2:R2|PEPTIDE5,PEPTIDE6,3:R3-2:R2|PEPTIDE7,PEPTIDE8,3:R3-2:R2|PEPTIDE1,PEPTIDE7,6:R3-5:R2|PEPTIDE1,PEPTIDE3,9:R3-8:R2|PEPTIDE3,PEPTIDE5,6:R3-5:R2$$$V2.0)	33 ± 3 µg/mL (≈ 7.15 µM)
32 μg/mL	> 64 μg/mL	32 μg/mL	32 μg/mL	> 64 μg/mL	16 μg/mL	64/>64/64 μg/mL	64/>64/64 μg/mL	64/>64/64 μg/mL	>64/>64/>64 μg/mL	>64/>64/>64 μg/mL	>64/>64/>64 μg/mL	> 64 μg/mL	> 64 μg/mL	16 μg/mL	CC(C)C[C@@H](NC(=O)[C@@H](CC(C)C)NC(=O)[C@@H](CC(C)C)NC(=O)[C@@H](CCCCNC(=O)[C@@H](CC(C)C)NC(=O)[C@@H](CC(C)C)NC(=O)[C@@H](CCCCNC(=O)[C@@H](CCCCN)NC(=O)[C@@H](CC(C)C)NC(=O)[C@@H](CCCCNC(=O)[C@@H](CC(C)C)NC(=O)CCCCCN)NC(=O)[C@@H](CC(C)C)NC(=O)CCCCCN)NC(=O)[C@@H](CCCCN)NC(=O)[C@@H](CC(C)C)NC(=O)[C@@H](CCCCNC(=O)[C@@H](CC(C)C)NC(=O)CCCCCN)NC(=O)[C@@H](CC(C)C)NC(=O)CCCCCN)NC(=O)[C@@H](CC(C)C)NC(=O)[C@@H](CC(C)C)NC(=O)[C@@H](CCCCNC(=O)[C@@H](CCCCN)NC(=O)[C@@H](CC(C)C)NC(=O)[C@@H](CCCCNC(=O)[C@@H](CC(C)C)NC(=O)CCCCCN)NC(=O)[C@@H](CC(C)C)NC(=O)CCCCCN)NC(=O)[C@@H](CCCCN)NC(=O)[C@@H](CC(C)C)NC(=O)[C@@H](CCCCNC(=O)[C@@H](CC(C)C)NC(=O)CCCCCN)NC(=O)[C@@H](CC(C)C)NC(=O)CCCCCN)C(N)=O [D-aX18] (I: H-[Ahx][dL][dK]([dL-Ahx])[dL][dK][dK]([dK-dL-X4])[dL][dL][dK][dL][dL][dL]-NH2 / II: H-[Ahx][dL][dK]([dL-Ahx])[dL][dK][dK]([dK-dL-X4])[dL][dL]; amide I:9-II:C)	21 ± 2 µg/mL (≈ 4.69 µM)
